Results from paper PMC10017709, “Structural basis of selective cannabinoid CB2 receptor activation” (Nature Communications, 2023).
Several values for one entry are separate records, joined by “and”; a condition that tells them apart may be missing. Equal entries are not always repeated. Where two headings read alike, the source gives them in different places.

Experiments:
[1] = biological target: T1, hCB2R (Homo sapiens, UniProt P34972); assay: [3H]RO6957022 displacement assay; assay type: binding; details: individual replicates
T1 construct: host or cells: CHO-K1 (CHOK1_hCB2bgal, PathHunter), membranes
T1 sequence (P34972 whole entry): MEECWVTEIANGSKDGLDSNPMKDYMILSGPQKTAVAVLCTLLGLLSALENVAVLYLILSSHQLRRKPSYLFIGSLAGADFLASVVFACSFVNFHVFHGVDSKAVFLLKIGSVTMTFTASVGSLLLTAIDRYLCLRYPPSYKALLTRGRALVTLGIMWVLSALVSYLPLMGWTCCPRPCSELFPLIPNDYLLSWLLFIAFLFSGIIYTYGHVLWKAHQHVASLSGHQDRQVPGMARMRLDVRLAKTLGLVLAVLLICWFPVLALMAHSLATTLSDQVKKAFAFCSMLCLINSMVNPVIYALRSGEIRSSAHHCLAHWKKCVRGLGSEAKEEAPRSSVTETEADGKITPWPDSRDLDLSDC

[2] = biological target: CB2R WT (Homo sapiens, UniProt P34972); assay: [35S]GTPγS G protein activation assay, CB2R WT; assay type: biochemical; details: for [35S]GTPγS binding, percentage of WT / [35S]GTPγS binding, percentage of CP55,940: individual replicates
CB2R WT, sequence (P34972 whole entry): as above

[3] = biological target: T1, hCB2R; assay: [3H]RO6957022 competition association assay; assay type: binding; details: for percentage specific [3H]RO6957022 binding (competition association): individual replicates
[4] = biological target: CB2R-Quadruple^TM1,7 (Homo sapiens, UniProt P34972, C40S/K279T/K33Q/V36I); assay: [35S]GTPγS assay, CB2R quadruple mutant; assay type: biochemical; details: for [35S]GTPγS binding, percentage of WT: QuadrupleTM1,7, individual replicates
CB2R-Quadruple^TM1,7, sequence (P34972 whole entry K33Q/V36I/C40S/K279T): as the sequence (P34972 whole entry) above, with K33Q, V36I, C40S, K279T counted along it

[5] = biological target: CB2R-L182^ECL2I (Homo sapiens, UniProt P34972, L182I); assay: [35S]GTPγS assay, CB2R L182I mutant; assay type: biochemical
CB2R-L182^ECL2I, sequence (P34972 whole entry L182I): as the sequence (P34972 whole entry) above, with L182I counted along it

[6] = biological target: CB2R-E181^ECL2D (Homo sapiens, UniProt P34972, E181D); assay: [35S]GTPγS assay, CB2R E181D mutant; assay type: biochemical
CB2R-E181^ECL2D, sequence (P34972 whole entry E181D): as the sequence (P34972 whole entry) above, with E181D counted along it

[7] = system: CB1R QuadrupleTM1,7; assay: [35S]GTPγS assay, CB1R quadruple mutant; assay type: biochemical, human
[8] = biological target: CB2R-L185^ECL2H (Homo sapiens, UniProt P34972, L185H); assay: [35S]GTPγS assay, CB2R L185H mutant; assay type: biochemical
CB2R-L185^ECL2H, sequence (P34972 whole entry L185H): as the sequence (P34972 whole entry) above, with L185H counted along it

[9] = system: cisplatin-induced nephropathy; assay: Cisplatin-induced nephropathy in wild type mice; assay type: in vivo, C57BL/6J mice
Procedure: (§1) Ten to twelve-week-old male/female C57BL/6J mice were obtained from The Jackson Laboratory (Bar Harbor, ME, USA). CB2R knockout mice (CB2R^−/−) and their wild-type littermates (CB2R^+/+) were developed as described previously and had been backcrossed to a C57BL/6J background. All animals were kept in a temperature-controlled environment (20–22 °C) with a 12 h light–dark cycle and were always allowed free access to food and water. All animal experiments reported in this manuscript complied with the National Institutes of Health “Guide for the Care and Use of Laboratory Animals” (NIH publication 86–23 revised 1985) and were approved by the Institutional Animal Care and Use Committee of the National Institute on Alcohol Abuse and Alcoholism (Bethesda, MD).
(§2) The well-established model of cisplatin-induced nephropathy was used[63]. Mice (CB2R^−/− and CB2R^+/+) were sacrificed 72 h after a single injection of cisplatin (cis-diamine platinum (II) dichloride (Sigma#P4394) 25 mg/kg i.p.; freshly dissolved in physiological saline) by cervical dislocation under deep anesthesia with 5% isoflurane, for collection of blood and tissue samples. LEI-102 was given i.p. or by oral gavage (p.o.) at 0.3, 3.0, and 10 mg/kg every day, starting 1.5 h before the cisplatin exposure. The drug was dissolved in a vehicle of DMSO:Tween 80:saline, 1:1:18. After administration of LEI‐102, mice were killed by cervical dislocation under deep anesthesia with 5% isoflurane, for collection of blood and tissue samples at the time described in the figure. The tetrad assay in mice has previously been described in detail.
(§3) Markers of kidney dysfunction (BUN and CREA), histopathology (PAS staining), immunostaining or ELISA for 3-nitrotyrosine (3-NT; Cell Biolabs #STA-305) and 4-hydroxynonenal (4-HNE; Cell Biolabs#STA-838), and real-time PCR (Primers from Qiagen, SYBER Green Vita Scientific#MEIF01301, High-Capacity cDNA Reverse Transcription Kit, Thermo Fisher Scientific#4368813) for inflammatory cytokines were performed as previously described. Tubular damage scores were determined based on the percentage of tubules showing epithelial necrosis where 0= normal; 1, <10%; 2, 10–25%; 3, 26–75%; 4, >75%. Tubular necrosis was defined as the loss of the proximal tubular brush border, blebbing of apical membranes, tubular epithelial cell detachment from the basement membrane, or intraluminal aggregation of cells and proteins. The morphometric examination was performed in a blinded manner. Ten fields were scored from each mouse kidneys at 200× magnification, and average scores were determined for each mouse. For final quantification graph, average tubular damage scores of six mice/group were plotted.

[10] = system: cisplatin-induced nephropathy, CB2R knockout mice (CB2R−/−); assay: Cisplatin-induced nephropathy in CB2R knockout mice; assay type: in vivo; details: Cisplatin KO; mean, n = 6
Procedure: as §1, §2, §3

[11] = biological target: CB1R-H270^ECL2L (Homo sapiens, UniProt P21554, H270L); assay: [35S]GTPγS assay, CB1R H270L mutant; assay type: biochemical
CB1R-H270^ECL2L, sequence (P21554 whole entry H270L): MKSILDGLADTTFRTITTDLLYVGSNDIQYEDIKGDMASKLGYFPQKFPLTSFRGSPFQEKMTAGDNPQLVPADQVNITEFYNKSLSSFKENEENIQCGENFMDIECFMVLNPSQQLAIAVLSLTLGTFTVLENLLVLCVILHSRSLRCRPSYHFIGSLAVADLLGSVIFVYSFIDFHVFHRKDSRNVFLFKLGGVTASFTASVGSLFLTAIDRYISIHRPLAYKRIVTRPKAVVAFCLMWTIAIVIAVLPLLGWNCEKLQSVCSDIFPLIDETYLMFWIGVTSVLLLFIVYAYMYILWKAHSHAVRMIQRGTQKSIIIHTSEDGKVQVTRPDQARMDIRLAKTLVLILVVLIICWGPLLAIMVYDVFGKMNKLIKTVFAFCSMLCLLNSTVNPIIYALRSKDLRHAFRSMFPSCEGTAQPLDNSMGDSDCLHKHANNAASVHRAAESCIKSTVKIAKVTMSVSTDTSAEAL

[12] = biological target: CB1R I267ECL2L (Homo sapiens, UniProt P21554, I267L); assay: [35S]GTPγS assay, CB1R I267L mutant; assay type: biochemical
CB1R I267ECL2L, sequence (P21554 whole entry I267L): as the sequence (P21554 whole entry H270L) above, with I267L, L270H counted along it

[13] = biological target: CB2R-I110^3.29L (Homo sapiens, UniProt P34972, I110L); assay: [35S]GTPγS assay, CB2R I110L mutant; assay type: biochemical
CB2R-I110^3.29L, sequence (P34972 whole entry I110L): as the sequence (P34972 whole entry) above, with I110L counted along it

[14] = biological target: T2, CB1R D266ECL2E (Homo sapiens, UniProt P21554, D266E); assay: [35S]GTPγS assay, CB1R D266E mutant; assay type: biochemical
T2 construct: The WT CB1R and CB2R genes were subcloned into vector pcDNA3.1; HA signal peptide (N); expressed in transfected cells; host or cells: HEK293T (transient, membrane homogenates)
T2 sequence (P21554 whole entry D266E): as the sequence (P21554 whole entry H270L) above, with D266E, L270H counted along it

[15] = biological target: CB2R-H95^2.65A (Homo sapiens, UniProt P34972, H95A); assay: [35S]GTPγS assay, CB2R H95A mutant; assay type: biochemical
CB2R-H95^2.65A, sequence (P34972 whole entry H95A): as the sequence (P34972 whole entry) above, with H95A counted along it

[16] = biological target: CB2R-S285^7.39A (Homo sapiens, UniProt P34972, S285A); assay: [35S]GTPγS assay, CB2R S285A mutant; assay type: biochemical
CB2R-S285^7.39A, sequence (P34972 whole entry S285A): as the sequence (P34972 whole entry) above, with S285A counted along it

[17] = biological target: CB2R-I110^3.29A (Homo sapiens, UniProt P34972, I110A); assay: [35S]GTPγS assay, CB2R I110A mutant; assay type: biochemical
CB2R-I110^3.29A, sequence (P34972 whole entry I110A): as the sequence (P34972 whole entry) above, with I110A counted along it

[18] = biological target: CB2R-F117^3.36A (Homo sapiens, UniProt P34972, F117A); assay: [35S]GTPγS assay, CB2R F117A mutant; assay type: biochemical
CB2R-F117^3.36A, sequence (P34972 whole entry F117A): as the sequence (P34972 whole entry) above, with F117A counted along it

[19] = biological target: hCB1R WT (Homo sapiens, UniProt P21554); assay: [35S]GTPγS G protein activation assay, CB1R WT; assay type: biochemical
hCB1R WT, sequence (P21554 whole entry): as the sequence (P21554 whole entry H270L) above, with L270H counted along it

[20] = biological target: CB2R-V261^6.51L (Homo sapiens, UniProt P34972, V261L); assay: [35S]GTPγS assay, CB2R V261L mutant; assay type: biochemical
CB2R-V261^6.51L, sequence (P34972 whole entry V261L): as the sequence (P34972 whole entry) above, with V261L counted along it

[21] = Cisplatin WT (Fig5F), mean, n = 6
[22] = cisplatin 25 mg/kg i.p. alone, 72 h, mean, n = 6 (Fig5A)
[23] = kidney, cisplatin alone, mean, n = 6, vehicle mean 1.0
[24] = kidney, cisplatin alone, mean, n = 6, vehicle mean 1.00

## CCCCC/C=C\C/C=C\C/C=C\C/C=C\CCCC(=O)NCCO [AEA, anandamide]
[1]; log [agonist] (M) -5
  percentage specific [3H]RO6957022 binding (displacement): 3.79% and 18.06% and 16.04%
[1]; log [agonist] (M) -6
  percentage specific [3H]RO6957022 binding (displacement): 47.48% and 65.38% and 68.38%
[1]; log [agonist] (M) -7
  percentage specific [3H]RO6957022 binding (displacement): 87.86% and 102.56% and 105.31%
[1]; log [agonist] (M) -8
  percentage specific [3H]RO6957022 binding (displacement): 101.15% and 95.97% and 108.64%
[2]; CB2R WT, maximum effect at 10 µM compared to WT (Suppl. Table 6), read-out: Emax (%)
  Emax: 106 ± 7%
[2]; CB2R WT, maximum effect compared to CP55,940, read-out: Emax (%)
  Emax: 60 ± 5%
[2]; log [ligand] (M) -5
  [35S]GTPγS binding, percentage of WT: 119.90 percentage of WT and 99.77 percentage of WT and 99.12 percentage of WT
[2]; log [ligand] (M) -6
  [35S]GTPγS binding, percentage of WT: 73.32 percentage of WT and 72.65 percentage of WT and 56.56 percentage of WT
[2]; log [ligand] (M) -7
  [35S]GTPγS binding, percentage of WT: 21.64 percentage of WT and 23.33 percentage of WT and 32.57 percentage of WT
[2]; log [ligand] (M) -8
  [35S]GTPγS binding, percentage of WT: 2.55 percentage of WT and 4.67 percentage of WT and 26.67 percentage of WT
[2]; log [agonist] (M) -5
  [35S]GTPγS binding, percentage of CP55,940: 55.30% and 54.57% and 71.23%
[2]; log [agonist] (M) -6
  [35S]GTPγS binding, percentage of CP55,940: 33.82% and 39.74% and 40.65%
[2]; log [agonist] (M) -7
  [35S]GTPγS binding, percentage of CP55,940: 9.98% and 12.76% and 23.41%
[2]; log [agonist] (M) -8
  [35S]GTPγS binding, percentage of CP55,940: 1.18% and 2.55% and 19.17%
[3]; Time 1 min
  percentage specific [3H]RO6957022 binding (competition association): 4.42% and 11.28% and 5.44%
[3]; Time 3 min
  percentage specific [3H]RO6957022 binding (competition association): 16.17% and 23.05% and 21.34%
[3]; Time 5 min
  percentage specific [3H]RO6957022 binding (competition association): 26.28% and 26.79% and 25.51%
[3]; Time 7 min
  percentage specific [3H]RO6957022 binding (competition association): 34.14% and 35.42% and 31.98%
[3]; Time 10 min
  percentage specific [3H]RO6957022 binding (competition association): 34.18% and 41.87% and 46.59%
[3]; Time 20 min
  percentage specific [3H]RO6957022 binding (competition association): 41.44% and 51.99% and 48.92%
[3]; Time 30 min
  percentage specific [3H]RO6957022 binding (competition association): 50.41% and 53.24% and 59.83%
[3]; Time 45 min
  percentage specific [3H]RO6957022 binding (competition association): 45.80% and 66.77% and 61.94%
[3]; Time 60 min
  percentage specific [3H]RO6957022 binding (competition association): 54.67% and 64.58% and 70.00%
[3]; Time 90 min
  percentage specific [3H]RO6957022 binding (competition association): 60.96% and 62.48% and 62.68%
[3]; Time 120 min
  percentage specific [3H]RO6957022 binding (competition association): 62.19% and 63.42% and 54.77%
[3]; at 1 µM agonist, ET = 1/(kon ∙ 1 × 10-6)
  ET (engagement time): 152 s and 152 ± 10.4 s
[4]; Quadruple TM1,7 mutant, at 10 µM compared to WT, read-out: Emax (%)
  Emax: 24 ± 7%
[4]; log [ligand] (M) -5
  [35S]GTPγS binding, percentage of WT: 32.30 percentage of WT and 9.42 percentage of WT and 29.02 percentage of WT
[4]; log [ligand] (M) -6
  [35S]GTPγS binding, percentage of WT: -7.36 percentage of WT and -10.83 percentage of WT and 27.74 percentage of WT
[4]; log [ligand] (M) -7
  [35S]GTPγS binding, percentage of WT: -34.86 percentage of WT and -19.55 percentage of WT and 15.75 percentage of WT
[4]; log [ligand] (M) -8
  [35S]GTPγS binding, percentage of WT: 9.32 percentage of WT and -29.85 percentage of WT and 11.86 percentage of WT
[5]; L182I mutant, at 10 µM compared to WT, read-out: Emax (%)
  Emax: 5 ± 17%
[6]; E181D mutant, at 10 µM compared to WT, read-out: Emax (%)
  Emax: 14 ± 5%
[7]
  Agonist-mediated activation: 1.6 ± 0.1 fold over its basal
[8]; L185H mutant, at 10 µM compared to WT, read-out: Emax (%)
  Emax: 210 ± 61%

## N.N.[Cl][Pt][Cl] [Cisplatin, cis-diamine platinum (II) dichloride]
[9]; [21]
  BUN: 170
  CREA: 1.7
  Tubular damage score: 2.16
[9]; [22]
  BUN: 167.5 mg/dL
  CREA: 1.8 mg/dL
[9]; cisplatin 25 mg/kg i.p., 72 h, wild type mice vs vehicle
  serum creatinine and blood urea nitrogen levels: marked elevations
[9]; cisplatin alone, PAS staining, score 0-4, mean, n = 6 (Fig5B)
  Tubular damage score: 2.4
[9]; [23]
  HNE (HNE adducts, ELISA): 4.3
  NT (protein nitration, ELISA): 5.7
[9]; [24]
  IL1b expression (real-time PCR): 4.93
  TNFa expression (real-time PCR): 3.36
[10]
  BUN: 290
  CREA: 3.7
  Tubular damage score: 2.86

## CCCCCCC(C)(C)c1ccc([C@@H]2C[C@H](O)CC[C@H]2CCCO)c(O)c1 [CP55,940]
[11]
  Agonist-mediated activation: 1.6 ± 0.1 fold over its basal
[2]
  Emax: 98 ± 4%
  Emax (%): 99 ± 3%
[12]
  Agonist-mediated activation: 1.0 ± 0.0 fold over its basal
[4]
  Emax: 18 ± 14%
[13]
  Emax: 96 ± 3%
[14]
  Agonist-mediated activation: 1.4 ± 0.1 fold over its basal
[15]
  Emax: 68 ± 11%
  drop in potency compared to WT: 40 fold
[5]
  Emax: 19 ± 2%
[6]
  Emax: 19 ± 10%
[16]
  Emax: 25 ± 5%
[7]
  Agonist-mediated activation: 1.8 ± 0.1 fold over its basal
[17]
  Emax: 30 ± 2%
[18]
  Emax: -1 ± 14%
[19]
  Agonist-mediated activation: 1.2 ± 0.1 fold over its basal
[20]
  Emax: 12 ± 7%
[8]
  Emax: 142 ± 16%
